Source: PubChem BioAssay AID1963839 (Molecular Pharmacology Branch, DTP, NCI, 2024)

Test system: 817829-284-R-J1-PDC complex spheroid viability
Assay: Anticancer human tumor 817829-284-R-J1-PDC patient-derived colon adenocarcinoma cell line growth inhibition [POLQ]
Settings: for IC50: curve of first compound; for viability, T/C: stronger effect = lower value
Experimental: Multicellular complex tumor spheroid response to Polymerase (POL) inhibitors (novobiocin, ART-558, RP6685) in combination with a variety of drugs and investigational agents in selected tumor cell lines
The POL inhibitors (novobiocin, ART-558, and RP6685) were evaluated both individually and in combination with standard of care and investigational anticancer small molecules within a complex spheroid model of solid tumors. . Complex spheroids include a stromal component modeled by human endothelial cells (HUVEC) and fibroblasts modeled by human mesenchymal stem cells (MSCs). The concentration ranges selected for each drug and investigational agent were based upon clinically achievable concentrations if the clinical Cmax of the agent was known.
Compounds. The drugs and investigational agents: novobiocin (NSC847541), ART-558 (NSC835418), RP-6685 (NSC848927), peposertib (NSC802822), ceralasertib (NSC780249), elimusertib (NSC800525), camonsertib (NSC841442), AZD-1390 (NSC803789), olaparib (NSC753686), talazoparib (NSC767125), rucaparib (NSC756644), sotorasib (NSC818433), MRTX-1133 (NSC836407), SN-38 (NSC673596), topotecan (NSC609699), epotoside (NSC141540), doxorubicin (NSC123127), gemcitabine (NSC613327), 5-fluorouracil (NSC19893), paclitaxel (NSC125973), vemurafenib (NSC761431), MSA-2 (NSC828583), SN-011 (NSC837082), adavosertib (NSC754352), prexasertib (NSC758257), carboplatin (NSC241240) and oxaliplatin (NSC266046), were obtained from the National Cancer Institute (NCI) Developmental Therapeutics Program Chemical Repository (21). The FDA-approved anticancer drug set is available from the Developmental Therapeutics Program at https://dtp.cancer.gov/organization/dscb/obtaining/. […] The stock solutions were prepared in dimethyl sulfoxide (DMSO, Sigma-Aldrich, St. Louis, MO, cat. D2650), except for the platinum compounds which were prepared in saline (Quality Biological, Gaithersburg, MD, cat. 114-055-101), at 800-fold the tested concentration and stored at -70 degrees C prior to their use. All drugs and investigational agents were tested over a range starting from a high concentration at or near the clinical Cmax and decreasing in half-log increments. If the clinical Cmax for an agent had not been determined, the highest concentration tested was 10 microM, except for SN-38, which was tested at a high concentration of 1 microM.
Cell Culture. All cells were maintained in an incubator at 37 degrees C and 5% CO2 with 95% humidity. The PDC lines were cultured according to standard operating procedures established by the NCI PDMR (https://pdmr.cancer.gov). Table 3 of the manuscript, lists the cell lines along with the number of the three cell types plated to form the mct-spheroids and media for tumor cell growth. After thawing, all PDC lines, except 997537-175-T-J1-PDC and 415267-285-R-J2-PDC, were cultured in Matrigel-coated flasks prepared with a working solution of 1X Ham's F-12 nutrient mix, without supplementation (Thermo Fisher Scientific, cat. 11765054), 100 U/mL penicillin-streptomycin (Thermo Fisher Scientific, cat. 15140122), and 2.5% Matrigel (Corning Inc., Corning, NY, cat. 354248) for the first three passages. The two PDC lines 997537-175-T-J1-PDC and 415267-285-R-J2-PDC were cultured on uncoated flasks. The 857933-349-R-J2-PDC line was cultured in 6C/Colon 1B media containing advanced DMEM/F-12 (Thermo Fisher Scientific, cat. 12634028), 10 mM HEPES (Thermo Fisher Scientific, cat. 15630080), 1X GlutaMAX supplement (Thermo Fisher Scientific, cat. 35050061), 0.1 mg/mL primocin (InvivoGen, San Diego, CA, cat. ant-pm-2), 10% defined fetal bovine serum, heat inactivated (HyClone Laboratories Inc., Logan, UT, cat. SH30070.03HI), 50% L-WRN conditioned media (ATCC, cat. CRL-3276), 1.25 mM N-Acetyl-L-cysteine (Sigma-Aldrich, cat. A9165), 10 mM nicotinamide (Sigma-Aldrich, cat. N0636), 1X B-27 supplement (Thermo Fisher Scientific, cat. 17504044), 1X N-2 supplement (Thermo Fisher Scientific, cat. […]

[1] = second compound 0.0316 µM, first compound 0.0316 µM
[2] = second compound 0.0316 µM, first compound 0.1 µM
[3] = second compound 0.0316 µM, first compound 0.316 µM
[4] = second compound 0.0316 µM, first compound 1 µM
[5] = second compound 0.1 µM, first compound 0.0316 µM
[6] = second compound 0.1 µM, first compound 0.1 µM
[7] = second compound 0.1 µM, first compound 0.316 µM
[8] = second compound 0.1 µM, first compound 1 µM
[9] = second compound 0.316 µM, first compound 0.0316 µM
[10] = second compound 0.316 µM, first compound 0.1 µM
[11] = second compound 0.316 µM, first compound 0.316 µM
[12] = second compound 0.316 µM, first compound 1 µM
[13] = second compound 1 µM, first compound 0.0316 µM
[14] = second compound 1 µM, first compound 0.1 µM
[15] = second compound 1 µM, first compound 0.316 µM
[16] = second compound 1 µM, first compound 1 µM
[17] = second compound 3.16 µM, first compound 0.0316 µM
[18] = second compound 3.16 µM, first compound 0.1 µM
[19] = second compound 3.16 µM, first compound 0.316 µM
[20] = second compound 3.16 µM, first compound 1 µM
[21] = second compound 10 µM, first compound 0.0316 µM
[22] = second compound 10 µM, first compound 0.1 µM
[23] = second compound 10 µM, first compound 0.316 µM
[24] = second compound 10 µM, first compound 1 µM
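Further: spheroids exposed to compounds for 7 days.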
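Wherever viability, T/C is given: 100% = DMSO vehicle-treated spheroids.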

How did the IC50 (second compound 0.0316 µM) turn out when `C#Cc1c(F)ccc2cc(O)cc(-c3ncc4c(N5CC6CCC(C5)N6)nc(OCC56CCCN5CC(F)C6)nc4c3F)c12` (centres undefined) + Cc1cccc(N(C)C(=O)C2C(O)CCN2c2nc(C)cc(C(F)(F)F)c2C#N)c1 was run?
The IC50 was greater than 10 µM.

What about the IC50 (second compound 0.1 µM) of the same compound?
The IC50 was greater than 10 µM.

And the IC50 (second compound 0.316 µM)?
The IC50 was greater than 10 µM.

What about the IC50 (second compound 1 µM) of the same compound?
Its IC50 is 7.2 µM.

And the IC50 (second compound 3.16 µM)?
The IC50 was greater than 10 µM.

And the IC50 (second compound 10 µM)?
Its IC50 is 8.06 µM.

And the viability, T/C [1]?
Its viability, T/C is 104%.

And the viability, T/C [2]?
Its viability, T/C is 112%.

What about the viability, T/C [3] of the same compound?
Its viability, T/C is 85.5%.

And the viability, T/C [4]?
Its viability, T/C is 85.9%.

And the viability, T/C (second compound 0.0316 µM, first compound 3.16 µM)?
Its viability, T/C is 112%.

And the viability, T/C (second compound 0.0316 µM, first compound 10 µM)?
Its viability, T/C is 60.9%.

And the viability, T/C [5]?
Its viability, T/C is 93%.

And the viability, T/C [6]?
The viability, T/C was 75.6%.

And the viability, T/C [7]?
The viability, T/C was 88%.

What about the viability, T/C [8] of the same compound?
Its viability, T/C is 95.1%.

And the viability, T/C (second compound 0.1 µM, first compound 3.16 µM)?
The viability, T/C was 136%.

What about the viability, T/C (second compound 0.1 µM, first compound 10 µM) of the same compound?
The viability, T/C was 76%.

And the viability, T/C [9]?
Its viability, T/C is 62.5%.

And the viability, T/C [10]?
The viability, T/C was 75.8%.

What about the viability, T/C [11] of the same compound?
Its viability, T/C is 95%.

And the viability, T/C [12]?
The viability, T/C was 97.9%.

And the viability, T/C (second compound 0.316 µM, first compound 3.16 µM)?
The viability, T/C was 79.7%.

And the viability, T/C (second compound 0.316 µM, first compound 10 µM)?
The viability, T/C was 63.5%.

What about the viability, T/C [13] of the same compound?
Its viability, T/C is 94.7%.

What about the viability, T/C [14] of the same compound?
The viability, T/C was 86.9%.

What about the viability, T/C [15] of the same compound?
Its viability, T/C is 93%.

What about the viability, T/C [16] of the same compound?
The viability, T/C was 118%.

And the viability, T/C (second compound 1 µM, first compound 3.16 µM)?
The viability, T/C was 97%.

And the viability, T/C (second compound 1 µM, first compound 10 µM)?
The viability, T/C was 31.2%.

And the viability, T/C [17]?
The viability, T/C was 108%.

What about the viability, T/C [18] of the same compound?
The viability, T/C was 82.3%.

And the viability, T/C [19]?
The viability, T/C was 86.1%.

And the viability, T/C [20]?
The viability, T/C was 87%.

What about the viability, T/C (second compound 3.16 µM, first compound 3.16 µM) of the same compound?
Its viability, T/C is 97.3%.

What about the viability, T/C (second compound 3.16 µM, first compound 10 µM) of the same compound?
Its viability, T/C is 89.4%.

And the viability, T/C [21]?
Its viability, T/C is 99.7%.

And the viability, T/C [22]?
Its viability, T/C is 108%.

What about the viability, T/C [23] of the same compound?
Its viability, T/C is 90.2%.

And the viability, T/C [24]?
The viability, T/C was 96.4%.

What about the viability, T/C (second compound 10 µM, first compound 3.16 µM) of the same compound?
Its viability, T/C is 89.3%.

And the viability, T/C (second compound 10 µM, first compound 10 µM)?
The viability, T/C was 40.7%.

With `CCc1c2c(nc3ccc(O)cc13)-c1cc3c(c(=O)n1C2)COC(=O)[C@]3(O)CC` + Nc1ccc(C#CCN(C(=O)Cc2ncc(C(F)(F)F)cc2C(F)(F)F)c2ccc(F)cc2)nn1 as the compound, how does the IC50 (second compound 0.0316 µM) read?
Its IC50 is less than 0.00316 µM.

What about the IC50 (second compound 0.1 µM) of the same compound?
Its IC50 is less than 0.00316 µM.

And the IC50 (second compound 0.316 µM)?
The IC50 was less than 0.00316 µM.

What about the IC50 (second compound 1 µM) of the same compound?
Its IC50 is less than 0.00316 µM.

What about the IC50 (second compound 3.16 µM) of the same compound?
Its IC50 is less than 0.00316 µM.

What about the IC50 (second compound 10 µM) of the same compound?
Its IC50 is less than 0.00316 µM.

And the viability, T/C (second compound 0.0316 µM, first compound 0.00316 µM)?
The viability, T/C was 22.5%.

What about the viability, T/C (second compound 0.0316 µM, first compound 0.01 µM) of the same compound?
The viability, T/C was 14.5%.

And the viability, T/C [1]?
The viability, T/C was 14.1%.

What about the viability, T/C [2] of the same compound?
The viability, T/C was 9.79%.

What about the viability, T/C [3] of the same compound?
Its viability, T/C is 5.25%.

What about the viability, T/C [4] of the same compound?
Its viability, T/C is 3.01%.

What about the viability, T/C (second compound 0.1 µM, first compound 0.00316 µM) of the same compound?
Its viability, T/C is 20.9%.

And the viability, T/C (second compound 0.1 µM, first compound 0.01 µM)?
The viability, T/C was 17.8%.

And the viability, T/C [5]?
Its viability, T/C is 12.8%.

And the viability, T/C [6]?
The viability, T/C was 8.52%.

And the viability, T/C [7]?
The viability, T/C was 4.76%.

What about the viability, T/C [8] of the same compound?
Its viability, T/C is 2.98%.

And the viability, T/C (second compound 0.316 µM, first compound 0.00316 µM)?
Its viability, T/C is 18.2%.

What about the viability, T/C (second compound 0.316 µM, first compound 0.01 µM) of the same compound?
Its viability, T/C is 19.1%.

What about the viability, T/C [9] of the same compound?
The viability, T/C was 11.2%.

What about the viability, T/C [10] of the same compound?
Its viability, T/C is 7.52%.

And the viability, T/C [11]?
The viability, T/C was 4.9%.

What about the viability, T/C [12] of the same compound?
The viability, T/C was 2.95%.

And the viability, T/C (second compound 1 µM, first compound 0.00316 µM)?
The viability, T/C was 22.2%.

And the viability, T/C (second compound 1 µM, first compound 0.01 µM)?
The viability, T/C was 21.4%.

And the viability, T/C [13]?
Its viability, T/C is 14.4%.

And the viability, T/C [14]?
The viability, T/C was 7.16%.

What about the viability, T/C [15] of the same compound?
The viability, T/C was 4.75%.

And the viability, T/C [16]?
Its viability, T/C is 2.54%.

What about the viability, T/C (second compound 3.16 µM, first compound 0.00316 µM) of the same compound?
Its viability, T/C is 15.1%.

And the viability, T/C (second compound 3.16 µM, first compound 0.01 µM)?
The viability, T/C was 16.2%.

And the viability, T/C [17]?
The viability, T/C was 13%.

And the viability, T/C [18]?
Its viability, T/C is 7.06%.

What about the viability, T/C [19] of the same compound?
The viability, T/C was 4.44%.

What about the viability, T/C [20] of the same compound?
The viability, T/C was 2.95%.

And the viability, T/C (second compound 10 µM, first compound 0.00316 µM)?
Its viability, T/C is 21.7%.

What about the viability, T/C (second compound 10 µM, first compound 0.01 µM) of the same compound?
The viability, T/C was 17%.

And the viability, T/C [21]?
Its viability, T/C is 10%.

And the viability, T/C [22]?
The viability, T/C was 7.06%.

What about the viability, T/C [23] of the same compound?
Its viability, T/C is 3.78%.

And the viability, T/C [24]?
The viability, T/C was 2.98%.
